Experimental data published in the NIST ThermoML archive (doi:10.1016/j.jct.2016.10.009).
Numbers after ± are expanded uncertainties.

Experiment: xn = mol fraction of the nth substance listed
Details: Liquid, Vibrating tube method, x1 = 1

In the case of `CCC(C)O` (centres undefined) [butan-2-ol] + CC(C)OC(C)C, the mass density (293.15 K, 100 kPa) is reported as 806.7 ± 0.7 kg/m3, the mass density (293.15 K, 1000 kPa) is reported as 807.4 ± 0.7 kg/m3 and the mass density (293.15 K, 5000 kPa) is reported as 810.4 ± 0.7 kg/m3. For the same molecule, the mass density (293.15 K, 10000 kPa) was 814 ± 0.7 kg/m3, the mass density (293.15 K, 15000 kPa) was 817.4 ± 0.7 kg/m3 and the mass density (293.15 K, 20000 kPa) was 820.7 ± 0.7 kg/m3. For the same molecule, the mass density (293.15 K, 25000 kPa) was 823.9 ± 0.8 kg/m3, the mass density (293.15 K, 30000 kPa) was 826.9 ± 0.8 kg/m3 and the mass density (293.15 K, 35000 kPa) was 829.8 ± 0.8 kg/m3. The mass density (293.15 K, 40000 kPa) was 832.7 ± 0.8 kg/m3, the mass density (293.15 K, 45000 kPa) was 835.4 ± 0.8 kg/m3 and the mass density (293.15 K, 50000 kPa) was 838.1 ± 0.8 kg/m3. The mass density (293.15 K, 55000 kPa) was 840.6 ± 0.8 kg/m3, the mass density (293.15 K, 60000 kPa) was 843.2 ± 0.8 kg/m3 and the mass density (293.15 K, 65000 kPa) was 845.6 ± 0.8 kg/m3. It also gave a mass density (293.15 K, 70000 kPa) of 848 ± 0.9 kg/m3, a mass density (293.15 K, 80000 kPa) of 852.6 ± 0.9 kg/m3 and a mass density (293.15 K, 90000 kPa) of 857.1 ± 0.9 kg/m3. It also gave a mass density (293.15 K, 100000 kPa) of 861.2 ± 0.9 kg/m3, a mass density (293.15 K, 110000 kPa) of 865.3 ± 0.9 kg/m3 and a mass density (293.15 K, 120000 kPa) of 869.2 ± 1 kg/m3. For the same molecule, the mass density (293.15 K, 130000 kPa) was 873 ± 1 kg/m3, the mass density (293.15 K, 140000 kPa) was 876.6 ± 1 kg/m3 and the mass density (298.15 K, 100 kPa) was 802.6 ± 0.7 kg/m3. For the same molecule, the mass density (298.15 K, 1000 kPa) was 803.3 ± 0.7 kg/m3, the mass density (298.15 K, 5000 kPa) was 806.4 ± 0.7 kg/m3 and the mass density (298.15 K, 10000 kPa) was 810.1 ± 0.7 kg/m3. It also gave a mass density (298.15 K, 15000 kPa) of 813.7 ± 0.7 kg/m3, a mass density (298.15 K, 20000 kPa) of 817 ± 0.7 kg/m3 and a mass density (298.15 K, 25000 kPa) of 820.2 ± 0.8 kg/m3. It also gave a mass density (298.15 K, 30000 kPa) of 823.4 ± 0.8 kg/m3, a mass density (298.15 K, 35000 kPa) of 826.4 ± 0.8 kg/m3 and a mass density (298.15 K, 40000 kPa) of 829.2 ± 0.8 kg/m3. It also gave a mass density (298.15 K, 45000 kPa) of 832 ± 0.8 kg/m3, a mass density (298.15 K, 50000 kPa) of 834.7 ± 0.8 kg/m3 and a mass density (298.15 K, 55000 kPa) of 837.4 ± 0.8 kg/m3. It also gave a mass density (298.15 K, 60000 kPa) of 839.9 ± 0.8 kg/m3, a mass density (298.15 K, 65000 kPa) of 842.4 ± 0.8 kg/m3 and a mass density (298.15 K, 70000 kPa) of 844.8 ± 0.9 kg/m3. For the same molecule, the mass density (298.15 K, 80000 kPa) was 849.5 ± 0.9 kg/m3, the mass density (298.15 K, 90000 kPa) was 854.1 ± 0.9 kg/m3 and the mass density (298.15 K, 100000 kPa) was 858.3 ± 0.9 kg/m3. It also gave a mass density (298.15 K, 110000 kPa) of 862.4 ± 1 kg/m3, a mass density (298.15 K, 120000 kPa) of 866.3 ± 1 kg/m3 and a mass density (298.15 K, 130000 kPa) of 870.1 ± 1 kg/m3. It also gave a mass density (298.15 K, 140000 kPa) of 873.9 ± 1 kg/m3, a mass density (313.15 K, 100 kPa) of 789.6 ± 0.7 kg/m3 and a mass density (313.15 K, 1000 kPa) of 790.3 ± 0.7 kg/m3. For the same molecule, the mass density (313.15 K, 5000 kPa) was 793.7 ± 0.7 kg/m3, the mass density (313.15 K, 10000 kPa) was 797.8 ± 0.7 kg/m3 and the mass density (313.15 K, 15000 kPa) was 801.6 ± 0.7 kg/m3. It also gave a mass density (313.15 K, 20000 kPa) of 805.3 ± 0.8 kg/m3, a mass density (313.15 K, 25000 kPa) of 808.6 ± 0.8 kg/m3 and a mass density (313.15 K, 30000 kPa) of 812.1 ± 0.8 kg/m3. It also gave a mass density (313.15 K, 35000 kPa) of 815.3 ± 0.8 kg/m3, a mass density (313.15 K, 40000 kPa) of 818.4 ± 0.8 kg/m3 and a mass density (313.15 K, 45000 kPa) of 821.3 ± 0.8 kg/m3. The mass density (313.15 K, 50000 kPa) was 824.3 ± 0.8 kg/m3, the mass density (313.15 K, 55000 kPa) was 827.1 ± 0.8 kg/m3 and the mass density (313.15 K, 60000 kPa) was 829.8 ± 0.9 kg/m3. For the same molecule, the mass density (313.15 K, 65000 kPa) was 832.5 ± 0.9 kg/m3, the mass density (313.15 K, 70000 kPa) was 835 ± 0.9 kg/m3 and the mass density (313.15 K, 80000 kPa) was 839.9 ± 0.9 kg/m3. The mass density (313.15 K, 90000 kPa) was 844.7 ± 0.9 kg/m3, the mass density (313.15 K, 100000 kPa) was 849.1 ± 1 kg/m3 and the mass density (313.15 K, 110000 kPa) was 853.5 ± 1 kg/m3. It also gave a mass density (313.15 K, 120000 kPa) of 857.6 ± 1 kg/m3, a mass density (313.15 K, 130000 kPa) of 861.5 ± 1 kg/m3 and a mass density (313.15 K, 140000 kPa) of 865.4 ± 1 kg/m3. For the same molecule, the mass density (333.15 K, 100 kPa) was 770.8 ± 0.7 kg/m3, the mass density (333.15 K, 1000 kPa) was 771.8 ± 0.7 kg/m3 and the mass density (333.15 K, 5000 kPa) was 775.7 ± 0.7 kg/m3. For the same molecule, the mass density (333.15 K, 10000 kPa) was 780.3 ± 0.7 kg/m3, the mass density (333.15 K, 15000 kPa) was 784.7 ± 0.7 kg/m3 and the mass density (333.15 K, 20000 kPa) was 788.9 ± 0.8 kg/m3. For the same molecule, the mass density (333.15 K, 25000 kPa) was 792.7 ± 0.8 kg/m3, the mass density (333.15 K, 30000 kPa) was 796.4 ± 0.8 kg/m3 and the mass density (333.15 K, 35000 kPa) was 800 ± 0.8 kg/m3. The mass density (333.15 K, 40000 kPa) was 803.5 ± 0.8 kg/m3.
